Settings: for mass density: 303.28 K, Fluid (supercritical or subcritical phases), Vibrating tube method

FC(F)=C(F)C(F)(F)F [hexafluoropropene]
Settings	vapor or sublimation pressure [kPa]
303.22 K, Liquid, Closed cell (Static) method	839.7

Settings	mass density [kg/m3]
2.4 kPa	0.14
4.4 kPa	0.19
5.3 kPa	0.25
7.7 kPa	0.38
11 kPa	0.59
12.7 kPa	0.7
13.6 kPa	0.71
14.5 kPa	0.85
16.3 kPa	0.86
17.2 kPa	0.87
18.1 kPa	1.01
22.7 kPa	1.19
24.5 kPa	1.4
26.4 kPa	1.46
28.1 kPa	1.59
30 kPa	1.72
33.6 kPa	1.94
37.2 kPa	2.14
38.2 kPa	2.2
40 kPa	2.21
41.8 kPa	2.46
43.6 kPa	2.43
47.2 kPa	2.81
50.8 kPa	3.02
52.5 kPa	3.04
56 kPa	3.26
57.9 kPa	3.38
59.7 kPa	3.48
61.4 kPa	3.61
63.1 kPa	3.73
64.8 kPa	3.84
66.5 kPa	3.93
68.3 kPa	3.99
73.4 kPa	4.37
76 kPa	4.49
78.6 kPa	4.64
81.2 kPa	4.8
83.8 kPa	4.98
86.4 kPa	5.18
88.9 kPa	5.4
94.2 kPa	5.64
96.9 kPa	5.73
98.7 kPa	5.85
100.4 kPa	6.09
103.1 kPa	6.18
105.7 kPa	6.35
108.4 kPa	6.54
113.7 kPa	6.9
116.4 kPa	6.95
124.2 kPa	7.43
126.7 kPa	7.66
132.1 kPa	7.96
134.8 kPa	8.17
137.3 kPa	8.36
139.9 kPa	8.56
142.5 kPa	8.68
145.1 kPa	8.84
147.8 kPa	9.01
153 kPa	9.28
155.7 kPa	9.53
158.4 kPa	9.61
163.7 kPa	9.96
166.2 kPa	10.08
168.8 kPa	10.29
171.4 kPa	10.52
174 kPa	10.66
176.6 kPa	10.78
179.2 kPa	10.96
181.8 kPa	11.08
184.4 kPa	11.32
187 kPa	11.51
194.7 kPa	11.98
197.5 kPa	12.12
202.8 kPa	12.46
206.2 kPa	12.64
209.6 kPa	12.92
213 kPa	13.17
216.4 kPa	13.34
219.9 kPa	13.6
223.3 kPa	13.85
226.8 kPa	14.01
230.3 kPa	14.3
233.7 kPa	14.54
244.3 kPa	15.23
247.7 kPa	15.41
251.2 kPa	15.74
254.6 kPa	15.88
258.1 kPa	16.18
261.6 kPa	16.37
265.1 kPa	16.6
268.6 kPa	16.83
275.3 kPa	17.32
278.7 kPa	17.49
282.2 kPa	17.78
285.5 kPa	17.97
289 kPa	18.22
295.7 kPa	18.58
299.1 kPa	18.89
309 kPa	19.54
313.2 kPa	19.76
317.3 kPa	20.15
321.7 kPa	20.39
325.7 kPa	20.7
329.8 kPa	21.01
338 kPa	21.54
342 kPa	21.84
346.2 kPa	22.19
350.3 kPa	22.34
358.6 kPa	23.03
362.7 kPa	23.29
366.9 kPa	23.58
375.1 kPa	24.18
379.2 kPa	24.47
383.4 kPa	24.75
387.5 kPa	25.04
391.7 kPa	25.35
395.8 kPa	25.63
399.9 kPa	25.95
406.9 kPa	26.42
416.6 kPa	27.12
421.9 kPa	27.51
426.1 kPa	27.84
435.7 kPa	28.54
441.2 kPa	28.92
446.7 kPa	29.28
452.1 kPa	29.75
457.4 kPa	30.13
461.6 kPa	30.45
467 kPa	30.79
472.4 kPa	31.26
477.7 kPa	31.6
488.4 kPa	32.46
